Experiments:
HCT-4 cells [1] = assay: Apoptosis of HCT-4 cells (Annexin V-PE / 7-AAD, FACS); format: cell-based, human; conditions: HCT-4, 1 μM, 21 days
Protocol: (§1) In this Example, experiments were carried out using the cells cultured for 21 days in Example 5. To detect apoptotic cells in the cells cultured for 21 days by adding 1 μM of compound A or compound B, the cells were stained by use of PE Annexin V apoptosis Detection Kit I (BD) and analyzed by FACS. In this analysis, the viable cells were detected based on FSC (forward scatter)-SSC (side scatter) plots. The viable cells were analyzed by Annexin V-PE (annexin V) and 7-AAD (7-amino actinomycin D). Early apoptotic cells were detected as Annexin V (+) 7-AAD (−) cells. The results were as shown in FIG. 8 (HCT-4 cells) and FIG. 9 (HCT-5 cells).

HCT-4 cells [2] = assay: Proliferation/viability of HTLV-1 infected cell line HCT-4 (CCK-8); format: cell-based, human; conditions: for Viability of HTLV-1 infected cells vs DMSO group: HCT-4, 1 μM, up to 21 days culture; for GI50: Homo sapiens, 336 h, 14 days culture, CCK-8
Protocol: (§2) HCT-4 and HCT-5, which were HTLV-1 infected cell lines established from the cerebrospinal fluid of HAM patients, were donated from a professor, Tatsufumi Nakamura of the Nagasaki International University. HCT-4 was cultured in RPMI1640 culture medium containing 10% FBS (GIBCO), a 1% penicillin-streptomycin solution (Wako) and 100 U/mL IL-2 (Cell Science & Technology Institute, Inc.); whereas HCT-5 was cultured by using 10% FBS, 1% penicillin-streptomycin solution, 1% L-glutamine (SIGMA) and 200 U/mL IL-2. HCT-4 (3×10^6 cells) or HCT-5 (2.5×10^6 cells) were seeded in a culture medium (20 mL) in a 75 cm^2-culture flask. DMSO was added and compound A or B was added so as to provide a final concentration of 1 μM and culture was carried out at 37° C. in 5% CO2 conditions for 21 days while repeating subculture. In the subculture, a culture solution containing HCT-4 treated with DMSO so as to correspond to 3×10^6 cells, whereas a culture solution containing HCT-5 treated with DMSO so as to correspond to 2.5×10^6 cells were taken and each added to a new culture medium to obtain a final volume of 20 mL, and then, further compound A or B was added so as to obtain the same concentration as above. Day 7, 14 and 21 after initiation of culture, cells were recovered from the culture solution and the density of the cells was measured. In this manner, the effect of compound A or B on cell proliferation was examined. The density of cells was determined by seeding cultured cells in a 96-well plate in a volume of 100 μL per well, adding 10 μL of Cell counting kit-8 (CCK-8) (Dojindo Laboratories laboratory) per well, incubating the cells at 37° C. for 3 hours and measuring absorbance at 450 nm by a plate reader (iMark Microplate Reader, Biorad). The proliferation rates of cell groups treated with compound A or compound B were each calculated based on the cell group treated with DMSO as a control. Next, in a 6-well plate, HCT-4 (4.5×10^5 cells) or HCT-5 (3.75×10^5 cells) were seeded. A solution of compound A or B prepared with DMSO was serially diluted (4-fold dilution from 10000 nM was serially repeated 8 times) and added thereto. The cells were repeatedly subcultured at intervals of 3 to 4 days in a culture solution of 3 mL in total at 37° C. in 5% CO2 condition for 14 days. […] The cells cultured for 14 days in individual conditions were recovered and the density of the cells were measured. […] The density of cells was determined by seeding the cultured cells (100 μL) per well in a 96-well plate, adding 10 μL of CCK-8 per well, incubating the cells at 37° C. for 3 hours and measuring absorbance at 450 nm by a plate reader. The proliferation rate of a group treated with compound A or compound B was calculated based on the group treated with DMSO as a control.

EZH2 = EZH2 (Homo sapiens, UniProt Q15910); conditions: from WO2015/141616; cited from earlier work
EZH2, sequence (Q15910 whole entry): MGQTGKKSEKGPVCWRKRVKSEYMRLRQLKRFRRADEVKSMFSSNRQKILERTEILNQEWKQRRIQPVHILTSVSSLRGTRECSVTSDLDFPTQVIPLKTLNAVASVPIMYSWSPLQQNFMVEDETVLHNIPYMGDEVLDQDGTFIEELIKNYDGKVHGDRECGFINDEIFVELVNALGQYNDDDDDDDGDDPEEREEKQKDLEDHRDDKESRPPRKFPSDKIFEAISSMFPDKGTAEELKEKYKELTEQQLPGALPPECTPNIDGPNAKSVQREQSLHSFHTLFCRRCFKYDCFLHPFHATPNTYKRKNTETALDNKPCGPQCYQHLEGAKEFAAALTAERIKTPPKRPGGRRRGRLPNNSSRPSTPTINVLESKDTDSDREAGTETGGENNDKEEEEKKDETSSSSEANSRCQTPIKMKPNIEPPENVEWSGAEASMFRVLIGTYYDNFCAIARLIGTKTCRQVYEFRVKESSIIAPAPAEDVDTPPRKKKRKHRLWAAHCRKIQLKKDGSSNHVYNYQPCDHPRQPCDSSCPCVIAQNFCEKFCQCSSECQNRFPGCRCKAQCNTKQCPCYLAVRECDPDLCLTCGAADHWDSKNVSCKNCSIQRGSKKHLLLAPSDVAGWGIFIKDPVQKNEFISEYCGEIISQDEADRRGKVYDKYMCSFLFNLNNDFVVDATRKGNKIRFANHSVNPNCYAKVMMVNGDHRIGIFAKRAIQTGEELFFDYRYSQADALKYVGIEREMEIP
EZH2, sequence (O75530 whole entry partner): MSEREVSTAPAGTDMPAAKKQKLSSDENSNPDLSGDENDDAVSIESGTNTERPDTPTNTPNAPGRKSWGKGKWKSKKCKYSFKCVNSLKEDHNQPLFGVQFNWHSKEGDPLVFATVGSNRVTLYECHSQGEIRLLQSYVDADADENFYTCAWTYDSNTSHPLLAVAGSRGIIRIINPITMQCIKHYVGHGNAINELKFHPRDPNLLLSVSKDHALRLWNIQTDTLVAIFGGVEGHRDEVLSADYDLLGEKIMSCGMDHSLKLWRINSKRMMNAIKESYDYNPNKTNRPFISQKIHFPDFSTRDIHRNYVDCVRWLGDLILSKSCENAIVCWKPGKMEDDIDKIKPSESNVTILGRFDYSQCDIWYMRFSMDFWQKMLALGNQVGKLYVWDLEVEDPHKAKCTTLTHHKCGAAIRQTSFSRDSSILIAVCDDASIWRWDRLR
EZH2, sequence (Q15022 whole entry partner): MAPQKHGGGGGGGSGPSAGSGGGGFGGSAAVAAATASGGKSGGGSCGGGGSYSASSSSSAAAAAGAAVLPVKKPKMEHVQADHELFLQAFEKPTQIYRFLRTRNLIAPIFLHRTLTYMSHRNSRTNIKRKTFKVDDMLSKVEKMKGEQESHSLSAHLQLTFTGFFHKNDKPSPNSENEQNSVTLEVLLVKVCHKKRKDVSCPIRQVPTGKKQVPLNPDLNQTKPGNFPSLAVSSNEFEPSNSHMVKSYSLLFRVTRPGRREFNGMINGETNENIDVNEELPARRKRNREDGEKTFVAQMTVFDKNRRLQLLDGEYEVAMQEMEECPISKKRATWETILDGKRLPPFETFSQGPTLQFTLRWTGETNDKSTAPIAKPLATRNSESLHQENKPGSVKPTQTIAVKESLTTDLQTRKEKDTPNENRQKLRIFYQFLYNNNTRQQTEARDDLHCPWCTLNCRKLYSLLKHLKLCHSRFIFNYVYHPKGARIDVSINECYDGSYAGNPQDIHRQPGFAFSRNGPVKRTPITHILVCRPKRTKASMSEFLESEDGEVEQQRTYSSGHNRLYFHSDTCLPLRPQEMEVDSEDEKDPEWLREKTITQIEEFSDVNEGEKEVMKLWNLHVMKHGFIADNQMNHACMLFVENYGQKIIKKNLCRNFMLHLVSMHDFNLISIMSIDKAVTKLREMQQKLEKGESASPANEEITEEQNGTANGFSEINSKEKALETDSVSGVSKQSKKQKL
EZH2, sequence (Q09028 whole entry partner): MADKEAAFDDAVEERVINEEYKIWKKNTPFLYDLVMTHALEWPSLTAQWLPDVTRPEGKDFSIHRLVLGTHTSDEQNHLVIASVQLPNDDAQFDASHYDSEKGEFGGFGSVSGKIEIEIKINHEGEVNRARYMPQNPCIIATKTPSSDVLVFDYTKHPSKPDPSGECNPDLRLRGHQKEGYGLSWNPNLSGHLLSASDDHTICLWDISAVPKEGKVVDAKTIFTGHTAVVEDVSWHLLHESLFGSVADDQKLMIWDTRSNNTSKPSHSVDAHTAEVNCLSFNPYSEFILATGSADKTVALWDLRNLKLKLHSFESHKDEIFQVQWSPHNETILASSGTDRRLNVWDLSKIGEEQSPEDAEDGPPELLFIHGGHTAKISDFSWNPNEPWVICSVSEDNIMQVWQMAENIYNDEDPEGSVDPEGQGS

HCT-5 cells [3] = assay: Proliferation/viability of HTLV-1 infected cell line HCT-5 (CCK-8); format: cell-based, human; conditions: for Viability of HTLV-1 infected cells vs DMSO group: HCT-5, 1 μM, up to 21 days culture; for GI50: Homo sapiens, 336 h, 14 days culture, CCK-8
Protocol: as §2

[4] = tested on: HTLV-1 infected cells in HAM patient's PBMC; assay: HTLV-1 pro-viral load (infected cell rate) in HAM patient-derived PBMC by real time PCR; format: cell-based, human; conditions: 12 days culture; for Reduction in HTLV-1 pro-viral load: 1000 nM, average of all HAM patients; for Cases in which HTLV-1 pro-viral load in HAM patient's PBMC decreases: PBMC of 8 HAM patients
Protocol: PBMC taken from 8 HAM patients were suspended in a culture medium (RPMI1640 culture medium containing 10% FBS) and seeded in a 48-well plate in a ratio of 5×10^5 cells per well, and compound A or compound B was added so as to provide a final concentration of 1, 10, 100 or 1000 nM. The culture solution of 0.5 mL in total was cultured at 37° C. in 5% CO2 conditions for 12 days. A group treated with DMSO and a group treated with PSL (1 μg/mL) were used as controls. Day 12 after initiation of culture, the culture solution was centrifuged, and thereafter, the cell suspension was recovered from each of the cultures carried out under different conditions and centrifuged. After the supernatant was removed, the cell pellet was subjected to genomic DNA extraction. The genome DNA extracted was subjected to real time PCR to measure HTLV-1 pro-viral load (infected cell rate) (Yamano et al., Blood. 2002, 99 (1): 88-94). Based on the HTLV-1 pro-viral load in cells, which were obtained by adding DMSO to each of the HAM patient's PBMC and culturing the PBMC, as 100%, the relative value of HTLV-1 pro-viral load in a group treated with compound A, compound B or PSL was calculated, and then, an average value of 8 HAM patient cases was obtained. The significance test was carried out by using the Friedman test of GraphPad Prism6 (MDF).

HCT-5 cells [5] = assay: Apoptosis of HCT-5 cells (Annexin V-PE / 7-AAD, FACS); format: cell-based, human; conditions: HCT-5, 1 μM, 21 days
Protocol: as §1

Cc1cc(C)c(CNC(=O)c2cc(Cl)c3c(c2C)O[C@@](C)([C@H]2CC[C@H](N(C)C)CC2)O3)c(=O)[nH]1 [compound B, (2R)-7-chloro-2-[trans-4-(dimethylamino)cyclohexyl]-N-[(4,6-dimethyl-2-oxo-1,2-dihydropyridin-3-yl)methyl]-2,4-dimethyl-1,3-benzodioxole-5-carboxamide]
Number of early apoptotic cells (Annexin V (+) 7-AAD (−)) (HCT-4 cells [1]): the number of early apoptotic cells increased
Number of viable cells (FSC-SSC) (HCT-4 cells [1]): the number of viable cells decreases
Viability of HTLV-1 infected cells vs DMSO group (HCT-4 cells [2]): significantly reduce the viability
GI50 (HCT-4 cells [2]): 5.92 nM
Inhibition of enzyme activity of EZH2 (EZH2): inhibit
Viability of HTLV-1 infected cells vs DMSO group (HCT-5 cells [3]): significantly reduce the viability
GI50 (HCT-5 cells [3]): 90.6 nM
Reduction in HTLV-1 pro-viral load [4]: significant reduction in pro-viral load
Cases in which HTLV-1 pro-viral load in HAM patient's PBMC decreases [4]: 5 out of 8
Number of early apoptotic cells (Annexin V (+) 7-AAD (−)) (HCT-5 cells [5]): the number of early apoptotic cells increased
Number of viable cells (FSC-SSC) (HCT-5 cells [5]): the number of viable cells decreases

Cc1cc(C)c(CNC(=O)c2cc(Br)c3c(c2C)O[C@@](C)([C@H]2CC[C@H](N(C)C)CC2)O3)c(=O)[nH]1 [compound A, (2R)-7-bromo-2-[trans-4-(dimethylamino)cyclohexyl]-N-[(4,6-dimethyl-2-oxo-1,2-dihydropyridin-3-yl)methyl]-2,4-dimethyl-1,3-benzodioxole-5-carboxamide]
Number of early apoptotic cells (Annexin V (+) 7-AAD (−)) (HCT-4 cells [1]): the number of early apoptotic cells increased
Number of viable cells (FSC-SSC) (HCT-4 cells [1]): the number of viable cells decreases
Viability of HTLV-1 infected cells vs DMSO group (HCT-4 cells [2]): significantly reduce the viability
GI50 (HCT-4 cells [2]): 7.63 nM
Inhibition of enzyme activity of EZH2 (EZH2): inhibit
Viability of HTLV-1 infected cells vs DMSO group (HCT-5 cells [3]): significantly reduce the viability
GI50 (HCT-5 cells [3]): 185 nM
Reduction in HTLV-1 pro-viral load [4]: significant reduction in pro-viral load
Cases in which HTLV-1 pro-viral load in HAM patient's PBMC decreases [4]: 5 out of 8
Number of early apoptotic cells (Annexin V (+) 7-AAD (−)) (HCT-5 cells [5]): the number of early apoptotic cells increased
Number of viable cells (FSC-SSC) (HCT-5 cells [5]): the number of viable cells decreases
